Reference: publication PMC7835237, “Dual mechanism β-amino acid polymers promoting cell adhesion” (Nature Communications, 2021)

Experiments:
[1] = tested on: MC3T3-E1 preosteoblast cells; test: Cell spreading area on modified surfaces (immunofluorescence analysis of cell morphology); assay type: cell-based, mouse
Method: The degree of cell spreading on a functionalized glass slide was measured by immunofluorescence analysis. After culture medium was removed, the slide was washed with PBS and then cells on the slide were fixed with 4% paraformaldehyde for 20 min. The slide was washed with PBS thrice and incubated for 5 min with 0.4% triton-X in PBS. Subsequently, the slide was washed with PBS thrice, followed by blocking with 3% bovine serum albumin (BSA) in PBS for 1 h at rt and then incubated with Alexa Fluor-555-conjugated anti-vinculin antibody (1:300 in PBS) overnight at 4 °C. The slide was washed with PBS thrice and incubated for 2 h with FITC-phalloidin (1:200 in PBS) and 4′-6-diamidino-2-phenylindole (DAPI) (5 μg/mL) for 10 min. The slide was washed with PBS thrice and its fluorescent images were collected on a confocal microscope (Nikon A1R, Japan).

[2] = tested on: MC3T3-E1 preosteoblast cells; test: Cell adhesion in a serum-free environment with enzyme-pretreated cells; assay type: cell-based, mouse; parameters: unit not given here; details: serum-free medium, 1 day
Method: Cells were detached and washed thrice with a serum-free medium. In order to examine the impact of cell membrane-tethered proteins on cell adhesion in a serum-free environment, cells were suspended and incubated at 37 °C for 20 min in 3 mL serum-free α-MEM medium that contains 0.307 U/mL plasmin, 10 U/mL collagenase (types I and II), 2 U/mL heparinase (types I, II, and III), or 10 U/mL hyaluronidase, respectively. The protease-treated cells were washed and suspended in a serum-free α-MEM to a final concentration of 1.5 × 10^5 cells/mL. An aliquot of 10 μL this cell suspension was added to each individual well (formed by a 50-well silicon coverslip on the top of a glass slide) that has bottom surface modified with DM50CO50, RGD, or KRSR, respectively, and then the slide was placed in a petri dish for incubation at 37 °C for 2 h for cell attachment. Then additional fresh medium was added into the petri dish to immerse the entire slide and the whole dish was incubated for 1 day. After removing the medium, cells were stained with a live/dead staining solution and the fluorescent images were captured under a microscope (Nikon Eclipse Ti-S, Japan) at different locations of each well. The collected images were analyzed using Image-pro plus software.

[3] = Control: untreated cells, value 1 of n = 9
[4] = Control: untreated cells, value 2 of n = 9
[5] = Control: untreated cells, value 3 of n = 9
[6] = Control: untreated cells, value 4 of n = 9
[7] = Control: untreated cells, value 5 of n = 9
[8] = Control: untreated cells, value 6 of n = 9
[9] = Control: untreated cells, value 7 of n = 9
[10] = Control: untreated cells, value 8 of n = 9
[11] = Control: untreated cells, value 9 of n = 9
[12] = cells pretreated with Collagenase 10 U/mL, value 1 of n = 9
[13] = cells pretreated with Collagenase 10 U/mL, value 2 of n = 9
[14] = cells pretreated with Collagenase 10 U/mL, value 3 of n = 9
[15] = cells pretreated with Collagenase 10 U/mL, value 4 of n = 9
[16] = cells pretreated with Collagenase 10 U/mL, value 5 of n = 9
[17] = cells pretreated with Collagenase 10 U/mL, value 6 of n = 9
[18] = cells pretreated with Collagenase 10 U/mL, value 7 of n = 9
[19] = cells pretreated with Collagenase 10 U/mL, value 8 of n = 9
[20] = cells pretreated with Collagenase 10 U/mL, value 9 of n = 9
[21] = cells pretreated with Heparinase 2 U/mL, value 1 of n = 9
[22] = cells pretreated with Heparinase 2 U/mL, value 2 of n = 9
[23] = cells pretreated with Heparinase 2 U/mL, value 3 of n = 9
[24] = cells pretreated with Heparinase 2 U/mL, value 4 of n = 9
[25] = cells pretreated with Heparinase 2 U/mL, value 5 of n = 9
[26] = cells pretreated with Heparinase 2 U/mL, value 6 of n = 9
[27] = cells pretreated with Heparinase 2 U/mL, value 7 of n = 9
[28] = cells pretreated with Heparinase 2 U/mL, value 8 of n = 9
[29] = cells pretreated with Heparinase 2 U/mL, value 9 of n = 9
[30] = cells pretreated with Hyaluronidase 10 U/mL, value 1 of n = 9
[31] = cells pretreated with Hyaluronidase 10 U/mL, value 2 of n = 9
[32] = cells pretreated with Hyaluronidase 10 U/mL, value 3 of n = 9
[33] = cells pretreated with Hyaluronidase 10 U/mL, value 4 of n = 9
[34] = cells pretreated with Hyaluronidase 10 U/mL, value 5 of n = 9
[35] = cells pretreated with Hyaluronidase 10 U/mL, value 6 of n = 9
[36] = cells pretreated with Hyaluronidase 10 U/mL, value 7 of n = 9
[37] = cells pretreated with Hyaluronidase 10 U/mL, value 8 of n = 9
[38] = cells pretreated with Hyaluronidase 10 U/mL, value 9 of n = 9
[39] = cells pretreated with Plasmin 0.307 U/mL, value 1 of n = 9
[40] = cells pretreated with Plasmin 0.307 U/mL, value 2 of n = 9
[41] = cells pretreated with Plasmin 0.307 U/mL, value 3 of n = 9
[42] = cells pretreated with Plasmin 0.307 U/mL, value 4 of n = 9
[43] = cells pretreated with Plasmin 0.307 U/mL, value 5 of n = 9
[44] = cells pretreated with Plasmin 0.307 U/mL, value 6 of n = 9
[45] = cells pretreated with Plasmin 0.307 U/mL, value 7 of n = 9
[46] = cells pretreated with Plasmin 0.307 U/mL, value 8 of n = 9
[47] = cells pretreated with Plasmin 0.307 U/mL, value 9 of n = 9

Substance: KRSRGYC
- Cell area of preosteoblast cells ([1]; cultured on modified surface for 3 h, replicate 1): 2526
- Cell area of preosteoblast cells ([1]; cultured on modified surface for 3 h, replicate 2): 2456
- Cell area of preosteoblast cells ([1]; cultured on modified surface for 3 h, replicate 3): 2659
- Cell area of preosteoblast cells ([1]; cultured on modified surface for 24 h, replicate 1): 4026
- Cell area of preosteoblast cells ([1]; cultured on modified surface for 24 h, replicate 2): 4102
- Cell area of preosteoblast cells ([1]; cultured on modified surface for 24 h, replicate 3): 4230
- Cell density (figure 6c) [2, 3]: 96
- Cell spreading area (figure 6b) [2, 3]: 2152
- Cell density (figure 6c) [2, 4]: 95
- Cell spreading area (figure 6b) [2, 4]: 2263
- Cell density (figure 6c) [2, 5]: 98
- Cell spreading area (figure 6b) [2, 5]: 2236
- Cell density (figure 6c) [2, 6]: 96
- Cell spreading area (figure 6b) [2, 6]: 2265
- Cell density (figure 6c) [2, 7]: 96
- Cell spreading area (figure 6b) [2, 7]: 2150
- Cell density (figure 6c) [2, 8]: 90
- Cell spreading area (figure 6b) [2, 8]: 2154
- Cell density (figure 6c) [2, 9]: 96
- Cell spreading area (figure 6b) [2, 9]: 2365
- Cell density (figure 6c) [2, 10]: 89
- Cell spreading area (figure 6b) [2, 10]: 2263
- Cell density (figure 6c) [2, 11]: 98
- Cell spreading area (figure 6b) [2, 11]: 2153
- Cell density (figure 6c) [2, 12]: 92
- Cell spreading area (figure 6b) [2, 12]: 2270.3
- Cell density (figure 6c) [2, 13]: 92
- Cell spreading area (figure 6b) [2, 13]: 2036
- Cell density (figure 6c) [2, 14]: 89
- Cell spreading area (figure 6b) [2, 14]: 2011.4
- Cell density (figure 6c) [2, 15]: 88
- Cell spreading area (figure 6b) [2, 15]: 2163
- Cell density (figure 6c) [2, 16]: 95
- Cell spreading area (figure 6b) [2, 16]: 2200
- Cell density (figure 6c) [2, 17]: 89
- Cell spreading area (figure 6b) [2, 17]: 2110.4
- Cell density (figure 6c) [2, 18]: 98
- Cell spreading area (figure 6b) [2, 18]: 2163
- Cell density (figure 6c) [2, 19]: 90
- Cell spreading area (figure 6b) [2, 19]: 2145
- Cell density (figure 6c) [2, 20]: 90
- Cell spreading area (figure 6b) [2, 20]: 2068
- Cell density (figure 6c) [2, 21]: 83
- Cell spreading area (figure 6b) [2, 21]: 1652
- Cell density (figure 6c) [2, 22]: 81
- Cell spreading area (figure 6b) [2, 22]: 1526.5
- Cell density (figure 6c) [2, 23]: 76
- Cell spreading area (figure 6b) [2, 23]: 1753
- Cell density (figure 6c) [2, 24]: 75
- Cell spreading area (figure 6b) [2, 24]: 1586.3
- Cell density (figure 6c) [2, 25]: 82
- Cell spreading area (figure 6b) [2, 25]: 1632
- Cell density (figure 6c) [2, 26]: 72
- Cell spreading area (figure 6b) [2, 26]: 1552.3
- Cell density (figure 6c) [2, 27]: 85
- Cell spreading area (figure 6b) [2, 27]: 1596.3
- Cell density (figure 6c) [2, 28]: 68
- Cell spreading area (figure 6b) [2, 28]: 1550
- Cell density (figure 6c) [2, 29]: 83
- Cell spreading area (figure 6b) [2, 29]: 1620
- Cell density (figure 6c) [2, 30]: 94
- Cell spreading area (figure 6b) [2, 30]: 2270.3
- Cell density (figure 6c) [2, 31]: 93
- Cell spreading area (figure 6b) [2, 31]: 1990.3
- Cell density (figure 6c) [2, 32]: 84
- Cell spreading area (figure 6b) [2, 32]: 2011.4
- Cell density (figure 6c) [2, 33]: 93
- Cell spreading area (figure 6b) [2, 33]: 1892.3
- Cell density (figure 6c) [2, 34]: 89
- Cell spreading area (figure 6b) [2, 34]: 2309.4
- Cell density (figure 6c) [2, 35]: 95
- Cell spreading area (figure 6b) [2, 35]: 2110.4
- Cell density (figure 6c) [2, 36]: 90
- Cell spreading area (figure 6b) [2, 36]: 2409.4
- Cell density (figure 6c) [2, 37]: 89
- Cell spreading area (figure 6b) [2, 37]: 1909
- Cell density (figure 6c) [2, 38]: 90
- Cell spreading area (figure 6b) [2, 38]: 1893
- Cell density (figure 6c) [2, 39]: 89
- Cell spreading area (figure 6b) [2, 39]: 2136
- Cell density (figure 6c) [2, 40]: 90
- Cell spreading area (figure 6b) [2, 40]: 2153.4
- Cell density (figure 6c) [2, 41]: 91
- Cell spreading area (figure 6b) [2, 41]: 2145
- Cell density (figure 6c) [2, 42]: 94
- Cell spreading area (figure 6b) [2, 42]: 2033
- Cell density (figure 6c) [2, 43]: 93
- Cell spreading area (figure 6b) [2, 43]: 2312.4
- Cell density (figure 6c) [2, 44]: 78
- Cell spreading area (figure 6b) [2, 44]: 2019.3
- Cell density (figure 6c) [2, 45]: 90
- Cell spreading area (figure 6b) [2, 45]: 2036
- Cell density (figure 6c) [2, 46]: 94
- Cell spreading area (figure 6b) [2, 46]: 2435.5
- Cell density (figure 6c) [2, 47]: 91
- Cell spreading area (figure 6b) [2, 47]: 2135
